Measured values published in paper PMC9276676, “Difluoromethylornithine (DFMO) and AMXT 1501 inhibit capsule biosynthesis in pneumococci” (Scientific Reports, 2022).
Values after ≈ are worked out from the molar mass of the structure shown. Like-named read-outs stand apart in the source and are kept apart here.

Legend:
[1] = tested on: S. pneumoniae D39; type: cell-based, Streptococcus pneumoniae
Description: This was done to directly compare possible changes in intracellular concentrations of polyamines and capsule precursors as a result of DFMO inhibition of polyamine synthesis to the earlier report where polyamine synthesis was affected via gene deletion in TIGR4[24]. […] Cells were harvested (5000×g, 10 min, 4 °C), re-suspended in extraction solvent [40% acetonitrile, 40% methanol, 20% water with formic acid (0.1 M)] and transferred to bead-beater tubes (MP Biomedicals, Irvine, CA, USA). Cells were lysed using a FastPrep-24™ Classic (45 s, 6.5 m/s, RT, 3 times) (MP Biomedicals, Irvine, CA, USA) and incubated on ice (5 min after each spin). TIGR4 lysates were clarified (6000×g, 5 min, 4 °C), and metabolite differentiation and detection were performed using published protocols[28],[29]. Liquid chromatography-mass spectrometry-based (LC–MS) metabolomic analysis was performed with an Agilent Accurate Mass 6230 TOF coupled with an Agilent 1290 LC system using a Cogent Diamond Hydride Type C column. Briefly, the mobile phase consisted of the following: solvent A (ddH2O with 0.2% formic acid) and solvent B (acetonitrile with 0.2% formic acid). The gradient used was as follows: 0–2 min, 85% B; 3–5 min, 80% B; 6–7 min, 75% B; 8–9 min, 70% B; 10–11.1 min, 50% B; 11.1–14 min 20% B; 14.1–24 min 5% B followed by a 10 min re-equilibration period at 85% B at a flow rate of 0.4 mL/min. Mass axis dynamics was calibrated by continuous infusion of a reference mass solution using an isocratic pump. […] Metabolite identities were searched for using a mass tolerance of < 0.005 Da. Metabolite concentrations from the 5 biological replicates were normalized to biomass based on measurement of residual peptide content in individual samples using the Pierce BCA Protein Assay kit (Thermo Fisher Scientific, Waltham, MA, USA). Data were analyzed using Profinder B.07.00 software (Agilent Technologies, Santa Clara, CA, USA). Extracted molecular features detected in the mass analyzer were identified using accurate mass values and used to generate empirical molecular formulae using an in-house metabolite database that included known intermediates, amino acid precursors and polyamines and their derivatives. Statistical analysis of metabolite peak intensity data was performed using MetaboAnalyst 4.0[30]. Data were normalized (quantile), log transformed and significant fold change between WT and DFMO-treated WT were identified by Student’s t-test (p ≤ 0.05).
To measure the polyamines, glucose and glucuronic acid in D39, TSQ Quantum Access triple-quadrupole tandem mass spectrometer (Thermo Fisher Scientific, Waltham, MA, USA) equipped with acquity UPLC system (Waters, Milford, MA, USA) was operated in positive and negative ion mode. Chromatographic separation was performed on Cogent Diamond Hydride HPLC column (2.1 mm × 150 mm, 4 μm) coupled with Congent Diamond Hydride HPLC Guard column (2.0 mm × 10 mm, 4 μm). The flow rate was 500 µL/min, the sample injection volume was 10 µL, and the column temperature was at 40 °C. The mobile phase A was composed of water with 0.1% v/v formic acid, and mobile phase B was composed of acetonitrile with 0.1% v/v formic acid. The gradient condition was 0 min (5% A, 95% B), 1 min (5% A, 95% B), 4.0 min (30% A, 70% B), 6 min (95% A, 5% B), 6.5 min (95% A, 5% B), 7 min (5% A, 95% B), and 10 min (5% A, 95%B). The total run time was 10 min, and the column eluate directed into the mass spectrometer using an electrospray ionization interface in positive and negative modes. The MS conditions were set as follow: spray voltage = 3500 V, vaporizer temperature = 350 °C, sheath gas = 25 psi, auxiliary gas = 10 psi, and capillary temperature = 350 °C. Samples were run in selected reaction monitoring (SRM) mode, and the optimized MS/MS parameters for ionization are given in Table 1.

[2] = tested on: S. pneumoniae serotype 2 (D39); assay: DFMO susceptibility and growth in THY (OD600, MIC); type: cell-based, Streptococcus pneumoniae; conditions: Streptococcus pneumoniae
Description: S. pneumoniae serotypes 4 (TIGR4), 2 (D39), 19F (EF3030) and 3 (WU2) were cultured in Todd Hewitt broth supplemented with yeast extract (THY). Supplementation with DFMO ranging from 1.1 to 549 mM was carried out in triplicate in a 96-well plate and incubated at 37 °C and 5% CO2 in a Cytation™ 5 cell imaging multi-mode reader (BioTek, Winooski, VT). The change in optical density at 600 nm (OD600) was measured every hour for 24 h and used to determine the minimum inhibitory concentration (MIC) of DFMO. The optical density data was analyzed using GrowthRates 4.0 software. To determine whether DFMO at sub-MIC is bacteriostatic or lethal to pneumococcal cells, all strains were cultured in the presence or absence of 1/2 MIC DFMO. OD600 was measured every hour and CFU were enumerated on a blood agar plate (BAP) every 2 h over an 8 h incubation period.

[3] = tested on: D39 (serotype 2) capsule; assay: Total capsular polysaccharide (CPS) immunoblot with densitometry; type: cell-based, Streptococcus pneumoniae; conditions: D39; for total CPS (capsule) by immunoblot: DFMO 1/8 MIC 34 mM, agmatine 1/4 MIC 20 mM, AMXT 1501 1/2 MIC 7.4 µM, alone or with agmatine
Description: (§1) S. pneumoniae strains were cultured with DFMO and AMXT 1501 at varying final concentrations of 1/2, 1/4, and 1/8 MIC to OD600 0.2–0.3 either individually or together to estimate any additive or synergistic effects. Capsular polysaccharides (CPS) were extracted and quantified in triplicate, as described previously[26] with slight modification. Briefly, CPS was extracted in a lysis buffer (4% deoxycholate, 50 µg/mL DNAse I and 50 µg/mL RNAse A) at 37 °C for 10 min and centrifuged at 18,000×g for 10 min. The supernatant (2 µL) was spotted on a 0.2-µm-pore-size nitrocellulose membrane (Thermo Fisher Scientific, Waltham, MA, USA) and oven dried at 60 °C for 15 min. The membranes were blocked and incubated with different types of antisera for capsule detection: antisera type- 4 (for TIGR4), 2 (for D39), polyclonal (for EF3030) and 3 (for WU2) (Cedarlane, Burlington, NC, USA). A conjugated polyclonal goat anti-rabbit IgG-HRP (Agilent Technologies, Santa Clara, CA, USA) was used for enhanced chemiluminescence (ECL) detection in all the strains (Thermo Fisher Scientific, Waltham, MA, USA) and scanned using a ChemiDoc XRS+ with Image Lab software (Bio-Rad, Hercules, CA, USA). Densitometry analysis of the immunoblot was done with NIH ImageJ software.
(§2) We determined the impact of varying concentrations of DFMO (1/8 to 1/2 MIC) on CPS in all serotypes (2, 4, 19F, and 3) used in this study. […] D39 was treated with 1/8 MIC DFMO alone, 1/4 MIC agmatine (Agm) alone, a combination of 1/8 MIC DFMO and 1/4 MIC Agm, and a control without DFMO or Agm. CPS was extracted as described in the previous section and immunoblot analysis with type 2 antisera was performed to detect CPS semi-quantitatively.

[4] = tested on: TIGR4 (serotype 4) capsule; assay: as above; type: cell-based, Streptococcus pneumoniae; conditions: serotype 4; AMXT 1501 at 1/2 MIC
Description: as §1, §2

[5] = tested on: WU2 (serotype 3) capsule; assay: as above; type: cell-based, Streptococcus pneumoniae; conditions: serotype 3; AMXT 1501 at 1/2 MIC
Description: as §1, §2

[6] = tested on: EF3030 (serotype 19F) capsule; assay: as above; type: cell-based, Streptococcus pneumoniae; conditions: serotype 19F; AMXT 1501 at 1/2 MIC
Description: as §1, §2

[7] = target: T1, SP_0916 (arginine decarboxylase, ADC) (Streptococcus pneumoniae, UniProt A0A0H2UPK4); conditions: Km of the enzyme for the decarboxylase substrate; rows named by product; previously reported ref 18; cited from earlier work
T1 sequence (A0A0H2UPK4 entry or part of it): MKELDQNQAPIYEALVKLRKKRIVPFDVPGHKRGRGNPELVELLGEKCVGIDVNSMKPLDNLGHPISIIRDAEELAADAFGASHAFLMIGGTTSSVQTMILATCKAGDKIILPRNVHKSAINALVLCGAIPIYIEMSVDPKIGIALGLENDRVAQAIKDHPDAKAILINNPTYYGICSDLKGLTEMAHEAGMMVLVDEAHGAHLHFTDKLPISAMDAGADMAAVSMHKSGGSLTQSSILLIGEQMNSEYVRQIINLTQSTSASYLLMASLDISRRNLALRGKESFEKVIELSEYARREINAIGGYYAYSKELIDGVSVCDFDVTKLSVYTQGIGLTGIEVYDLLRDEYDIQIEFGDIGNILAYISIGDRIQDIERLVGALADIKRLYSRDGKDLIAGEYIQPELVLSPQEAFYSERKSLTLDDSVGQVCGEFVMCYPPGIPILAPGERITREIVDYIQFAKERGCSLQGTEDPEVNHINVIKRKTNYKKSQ

[8] = target: T1, SP_0916 (arginine decarboxylase, ADC); assay: Inhibition of decarboxylase activities of recombinant SP_0916 (LC-MS); type: biochemical; conditions: read-out: DFMA IC50
From the text: We determined the impact of DFMO (ODC/ADC inhibitor) and α-difluoromethylarginine (DFMA, an ADC inhibitor) on the decarboxylase activities of SP_0916. BL21(DE3) cells expressing recombinant His tag SP_0916 were lysed with B-PER reagent buffer (Thermo Fisher Scientific, Waltham, MA, USA), lysate separated by loading unto HisPur Cobalt Spin Column (Thermo Fisher Scientific, Waltham, MA, USA), desalted using Sephadex G-25 PD-10 column (GE Healthcare, Chicago, IL, USA), and protein concentration estimated using the Pierce BCA Protein Assay kit (Thermo Fisher Scientific, Waltham, MA, USA).
SP_0916-encoded protein (0.926 µmol L^−1) was mixed with 10 mM substrate (arginine, lysine or ornithine) in the reaction mixture (500 µL reaction volume, 50 mM Tris–HCl, pH 8.0) that contains 2.5 mM MgSO4 and 0.6 mM PLP. DFMO was diluted in water to 3–900 mM and added to the reaction mixture after 5 min preincubation at 37 °C in the dark. DFMA stock was made in a similar manner but was diluted in water to 0.3–1000 µM. The enzyme and inhibitor were incubated at 37 °C for 15 min in the dark and the reaction terminated with 0.3 M perchloric acid. After incubation on ice for 15 min, the samples were neutralized with 25 µL of 10 N KOH and extracted with 1 mL of 1-butanol. The organic layer was dried under nitrogen gas and reconstituted with 100 µL of water containing Spermidine-d8 and Glucose-d7 as an internal standard. Analysis of the extracts was performed on a Surveyor LC–MS system. 5 µL of reconstitution was injected to the LC–MS system for detection of the products (agmatine, cadaverine or putrescine). We used internal standards to normalize and determine the peak intensity (area ratio) for each metabolite detected. Enzyme activity without inhibitor is referred to as a control activity. All experiments were performed in triplicate. The concentration of inhibitor that inhibited 50% of the control activity (IC50 value) was determined by varying the concentration of the indicated DFMO or DFMA and measuring the decarboxylase activity. Sigma Plot v. 12 was used to fit the curve through the points and IC50 values were interpolated from the fitted curve.

[9] = DFMO 34 mM, agmatine 20 mM, AMXT 1501 7.4 µM, p-value in bracket omitted

Row | Structure (SMILES) | Agmatine, fold change treated D39 /D39 [1, 9] | Cadaverine, fold change treated D39 /D39 [1, 9] | Lysine, fold change treated D39 /D39 [1, 9] | N-acetyl spermidine, fold change treated D39 /D39 [1, 9] | N-carbamoyl putrescine, fold change treated D39 /D39 [1, 9] | Ornithine, fold change treated D39 /D39 [1, 9] | Putrescine, fold change treated D39 /D39 [1, 9] | Spermidine, fold change treated D39 /D39 [1, 9] | Spermine, fold change treated D39 /D39 [1, 9] | total CPS (capsule) by immunoblot [3] | Km [7] [µM] | further results
1 | CCCCCCCCCCCCCCCC(=O)NCCCC[C@@H](N)C(=O)NCCCNCCCCNCCCN [AMXT 1501] | -1.5 (0.006) | -1.2 (4.61E-04) | -0.5 (3.48E-04) | -1.6 (0.022) | -1.8 (0.016) | -0.5 (0.004) | -1.4 (0.001) | -5.5 (0.006) | -0.3 (0.455) | Loss of capsule | – | intracellular glucose (peak intensity) ([1]; 1/8 MIC DFMO (34 mM), 1/2 MIC AMXT 1501 (7.4 µM)): increases glucose level; intracellular glucuronic acid (peak intensity) ([1]; 1/8 MIC DFMO (34 mM), 1/2 MIC AMXT 1501 (7.4 µM), separately or in combination): significantly depleted; Arginine, fold change treated D39 /D39 [1, 9]: -0.1 (0.546); MIC ([2]; read-out: 1/2 MIC): 7.4 µM (≈ 4.21 µg/mL); less capsule compared to untreated controls (densitometry of immunoblots) ([3]; 1/2 MIC AMXT 1501 (7.4 µM)): 61%; impact on CPS [4]: had no impact on CPS; impact on CPS [5]: had no impact on CPS; impact on CPS [6]: had no impact on CPS
2 | NCCCCN=C(N)N [Agmatine, agmatine] | 10.2 (1.61E-06) | -0.3 (0.204) | 0.1 (0.048) | 0.8 (0.009) | 9.6 (1.58E-05) | 0.1 (0.149) | 3.3 (0.004) | 0.6 (0.283) | 1.4 (3.30E-04) | does not impact the capsule | 110 ± 20 | MIC ([2]; D39, concentration equal to a quarter of the MIC, read-out: 1/4 MIC): 20000 µM (≈ 2600 µg/mL)
3 | NCCCCCN [Cadaverine, cadaverine] | – | – | – | – | – | – | – | – | – | – | 1610 ± 280 | –
4 | N=C(N)NCCC[C@](N)(C(=O)O)C(F)F [DFMA, α-difluoromethylarginine] | – | – | – | – | – | – | – | – | – | – | – | IC50 ([8]; arginine to agmatine, 10 mM substrate, 15 min, 37 °C): 1.1 ± 0.1 µM; IC50 ([8]; lysine to cadaverine, 10 mM substrate, 15 min, 37 °C): 56.6 ± 11.9 µM; IC50 [8]: 40.5 ± 11.6 µM
5 | NCCCCN [Putrescine, putrescine] | – | – | – | – | – | – | – | – | – | – | 3550 ± 280 | –
